Our source for the solubility and mortality values is ChEMBL document CHEMBL3046738, “Quinolactacide, a new quinolone insecticide from Penicillium citrinum Thom F 1539” (Biosci Biotechnol Biochem, 2005).

Series [1] in a line: Solubility of the compound in ethyl acetate. It counts as physicochemical.
The nature of series [2]: Solubility of the compound in chloroform. It counts as physicochemical.
Series [3] can be described thus: Solubility of the compound in methanol. In kind it is physicochemical.
The next series relates to Myzus persicae. In words: Insecticidal activity against Myzus persicae (green peach aphid) infested two-leaf stage of cabbage plants assessed as mortality at 250 ppm applied as spray after 4 days relative to untreated control. The following applies: 96 h. It counts as functional.
Series [4] in a line: Solubility of the compound in DMSO. It counts as physicochemical.

The structures appear in SMILES notation.

In the case of `O=C1c2c([nH]c3ccccc3c2=O)-c2cccn21` [QUINOLACTACIDE], the solubility result in series [1] is on record as “Insoluble”; in series [2], “Insoluble”; in series [3] it was “Insoluble”; in series [4] it was “soluble”. In the series with Myzus persicae, the mortality at 250 ppm came out at 88%.
